Assay results taken from patent US20060223837A1 (priority 2005, published 2006).

How the values were obtained:
[1] = biological target: T1, human VR1 (Homo sapiens, UniProt Q8NER1); assay: Human VR1 [3H]RTX binding assay; settings: for h Binding % I (1 μM) / inhibition at 1 µM: inhibition of [3H]RTX binding at 1 μM; for Ki: [3H]RTX binding, HEK293 membranes; for inhibition at 1 µM: read-out: h Binding % I (1 μM)
T1 construct: expressed in transfected cells; host or cells: HEK293
Description: Compounds of the present invention were tested for their ability to inhibit the binding of tritiated resiniferatoxin ([^3H] RTX) to human VR1 receptors in a [^3H] RTX binding assay, as previously described (Zhang, Sui-Po. Improved ligand binding assays for vanilloid receptors. PCT Int. Appl. (2002), WO 0233411 A1 20020425 AN 2002:315209; Grant, Elfrida R., Dubin, Adrienne E., Zhang, Sui-Po, Zivin, Robert A., Zhong, Zhong Simultaneous intracellular calcium and sodium flux imaging in human VR1-transfected human embryonic kidney cells: a method to resolve ionic dependence of VR1-mediated cell death. J. Pharmacol. Exp. ther., 2002, 300(1), 9-17.) HEK293 cells were transfected with human VR1 and washed with Hank's balanced Salt Solution, dissociated with cell dissociation buffer (Sigma), and then centrifuged at 1000× g for 5 min. Cell pellets were homogenized in cold 20 mM HEPES buffer (pH 7.4), containing 5.8 mM NaCl, 320 mM sucrose, 2 mM MgCl2, 0.75 CaCl2 and 5 mM KCl and centrifuged at 1000× g for 15 min. The resultant supernate was then centrifuged at 40000× g for 15 min. The pelleted membranes were stored in a freezer at −80 C.
Approximately 120 μg protein/ml from membranes were incubated with indicated concentrations of [^3H]RTX in 0.5 ml of the HEPES buffer (pH 7.4) containing 0.25 mg/mL fatty acid-free bovine serum albumin at 37 C for 60 min. After cooling the reaction mixture to 4 C, 0.1 mg (x-acid glycoprotein was added to each sample, which was incubated at 4 C for 15 min and then centrifuged at 18500× g for 15 min. The tip of the microcentrifuge tube containing the pellet was cut off. Bound radioactivity was quantified by scintillation counting. Non-specific binding was assessed in the presence of 200 nM unlabeled resiniferatoxin.
Data were calculated according to the equation: % inhibtion=(total binding−binding)*100/(total binding−non specific binding).
Ki values were calculated based on an average of duplicate measurements using a GraphPad Prism program.

[2] = biological target: T1, human VR1; assay: Human VR1 functional assay (FLIPR intracellular Ca2+); assay type: cell-based; settings: for h % I (5 μM) / inhibition at 1 µM / inhibition at 5 µM / h % I (1 μM): inhibition of capsaicin response; for IC50: antagonism of capsaicin-induced Ca2+ increase, read-out: h IC50; for inhibition at 1 µM: read-out: h % I (1 μM); for inhibition at 5 µM: read-out: h % I (5 μM)
Description: The functional activity of the test compounds was determined by measuring changes in intracellular calcium concentration using a Ca^2+-sensitive fluorescent dye and FLIPR™ technology. Increases in Ca^2+ concentration were readily detected upon challenge with capsaicin. HEK293 Cells expressing human VR1 were grown on poly-D-lysine coated 384 well black-walled plates (BD 354663) and 1 day later loaded with Calcium 3 Dye for 35 min at 37 C, 5% CO2 and then for 25 min at room temperature, and subsequently tested for agonist-induced increases in intracellular Ca^2+ levels using FLIPR™ technology. Cells were challenged with test compounds (at varying concentrations, which are indicated in parentheses in the heading of the table below) and intracellular Ca^2+ was measured for 5 min prior to the addition of capsaicin to all wells to achieve a final concentration of eliciting an approximate 80% maximal response ([…]). EC50 or IC50 values were determined from dose-response studies. Curves were generated using the average of quadruplicate wells for each data point.

T1 sequence (Q8NER1 whole entry): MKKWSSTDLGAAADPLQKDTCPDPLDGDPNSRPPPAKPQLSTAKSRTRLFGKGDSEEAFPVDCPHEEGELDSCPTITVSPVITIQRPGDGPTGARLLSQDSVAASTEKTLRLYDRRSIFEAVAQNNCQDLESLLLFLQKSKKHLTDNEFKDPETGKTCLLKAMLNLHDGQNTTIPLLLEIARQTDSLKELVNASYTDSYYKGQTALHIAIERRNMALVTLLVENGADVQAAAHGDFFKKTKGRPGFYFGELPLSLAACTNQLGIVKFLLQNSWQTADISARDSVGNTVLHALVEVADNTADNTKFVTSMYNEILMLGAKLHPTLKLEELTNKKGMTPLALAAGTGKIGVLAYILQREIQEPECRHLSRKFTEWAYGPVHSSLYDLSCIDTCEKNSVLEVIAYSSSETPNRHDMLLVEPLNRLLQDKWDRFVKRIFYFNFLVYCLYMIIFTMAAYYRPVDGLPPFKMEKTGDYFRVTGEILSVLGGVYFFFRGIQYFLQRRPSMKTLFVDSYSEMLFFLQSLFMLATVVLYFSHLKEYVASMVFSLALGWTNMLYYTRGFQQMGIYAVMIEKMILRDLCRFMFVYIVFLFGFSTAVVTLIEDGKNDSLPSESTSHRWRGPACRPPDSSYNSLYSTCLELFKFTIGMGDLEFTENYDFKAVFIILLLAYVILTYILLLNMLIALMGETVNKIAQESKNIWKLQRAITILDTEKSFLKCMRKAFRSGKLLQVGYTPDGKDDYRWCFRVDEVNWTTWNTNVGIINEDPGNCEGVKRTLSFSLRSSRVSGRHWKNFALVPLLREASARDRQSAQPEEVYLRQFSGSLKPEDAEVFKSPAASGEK

h Binding % I (1 μM) [1] | SMILES | other results
1% | O=C(CCc1ccc(C(F)(F)F)cc1)Nc1ccc(-c2cccc(O)c2)c2ccccc12 [Cpd 85] | h % I (5 μM) [2]: 21%
1% | O=C(CCc1ccc(C(F)(F)F)cc1)Nc1ccc(-c2ccncc2)c2ccccc12 [Cpd 157] | h % I (5 μM) [2]: 12%
15% | CC(=O)Nc1cccc(-c2ccc(NC(=O)CCc3ccc(C(C)(C)C)cc3)c3ccncc23)c1 [Cpd 154] | 
40% | CC(C)(C)c1ccc(CCC(=O)Nc2ccc(-c3cccc(CO)c3)cc2)cc1 [Cpd 23] | 
27% | CC(C)(C)c1ccc(CCC(=O)Nc2ccc(-c3cccc(C(N)=O)c3)c(F)c2)cc1 [Cpd 53] | 
1% | CC(C)(C)c1ccc(CCC(=O)Nc2cccc(-c3cccnc3)c2)cc1 [Cpd 106] | 
5% | CC(=O)Nc1cccc(-c2ccc(NC(=O)CCc3ccc(C(C)(C)C)cc3)c(C)c2)c1 [Cpd 54] | 
1% | CC(C)(C)c1ccc(CCC(=O)Nc2ccc(-c3ccncc3)cc2CO)cc1 [Cpd 140] | 
77% | O=C(CCc1ccc(C(F)(F)F)cc1)Nc1ccc(-c2cccc(O)c2)c2cnccc12 [Cpd 158] | 
16% | CC(=O)Nc1cccc(-c2ccc(NC(=O)CCc3ccc(C(C)(C)C)cc3)c(F)c2)c1 [Cpd 56] | 
89% | CC(C)(C)c1ccc(CCC(=O)Nc2ccc(-c3cccc(O)c3)c3cnccc23)cc1 [Cpd 155] | 
33% | CC(C)(C)c1ccc(CCC(=O)Nc2ccc(-c3ccncc3)c3cnccc23)cc1 [Cpd 156] | 
8% | O=C(CCc1ccc(C(F)(F)F)cc1)Nc1ccc(-c2ccccc2O)nc1 [Cpd 146] | 
1% | CC(C)(C)c1ccc(CCC(=O)Nc2ccc(-c3ccncc3)cc2C(=O)O)cc1 [Cpd 139] | 
1% | O=C(CCc1ccc(C(F)(F)F)cc1)Nc1ccc(-c2ccncc2)c2cnccc12 [Cpd 159] | 
1% | CC(C)(C)c1ccc(CCC(=O)Nc2ccc(-c3ccncc3)c(C(=O)O)c2)cc1 [Cpd 141] | 
1% | CC(C)(C)c1ccc(CCC(=O)Nc2ccc(-c3cccc(C(N)=O)c3)cc2F)cc1 [Cpd 52] | 

The next lines start with the compound.

SMILES | h Binding % I (1 μM) [1] | other results
CN(C)C(=O)c1cccc(-c2ccc(NC(=O)/C=C/c3ccc(C(C)(C)C)cc3)cc2)c1 [Cpd 36] | 16% | % Response Relative to EC80 of Capsaicin (12 μM) ([2]; agonist response, 12 μM): 55%
Cc1cn(-c2ccc(NC(=O)CCc3ccc(C(F)(F)F)cc3)cc2C(F)(F)F)cn1 [Cpd 204, N-[4-(4-Methyl-imidazol-1-yl)-3-trifluoromethyl-phenyl]-3-(4-trifluoromethyl-phenyl)-propionamide] |  | Ki [1]: 31.9 nM; IC50 [2]: 37 nM; inhibition at 1 µM [2]: 100%
Cc1cc(NC(=O)CCc2ccc(C(F)(F)F)cc2)cnc1-n1cnc(Cl)c1Cl [Cpd 203, N-[6-(4,5-Dichloro-imidazol-1-yl)-5-methyl-pyridin-3-yl]-3-(4-trifluoromethyl-phenyl)-propionamide] |  | Ki [1]: 34 nM; IC50 [2]: 35.2 nM; inhibition at 1 µM [2]: 99%; inhibition at 5 µM [2]: 100%
CC(C)(C)c1ccc(CCC(=O)Nc2cccc(-c3cccc(O)c3)n2)cc1 [Cpd 126] | 9% | 
CNC(=O)c1cccc(-c2ccc(NC(=O)CCc3ccc(C(C)(C)C)cc3)c(C(=O)O)c2)c1 [Cpd 67] | 1% | 
CC(C)(C)c1ccc(CCC(=O)Nc2ccc(-n3cnc(Cl)c3Cl)cc2)cc1 [Cpd 200] | 100% | 
Cc1cc(NC(=O)CCc2ccc(C(C)(C)C)cc2)ccc1-c1cccc(C(N)=O)c1 [Cpd 51] | 19% | 
CC(=O)Nc1cccc(-c2ccc(NC(=O)CCc3ccc(C(C)(C)C)cc3)nc2)c1 [Cpd 125] | 1% | 
CC(C)(C)c1ccc(CCC(=O)Nc2ccc(-c3cccc(C(N)=O)c3)nc2)cc1 [Cpd 127] | 16% | 
CC(C)(C)c1ccc(CCC(=O)Nc2ccc(-c3cccc(C(N)=O)c3)cn2)cc1 [Cpd 124] | 1% | 
Cc1cc(C)n(-c2ccc(NC(=O)CCc3ccc(C(C)(C)C)cc3)cc2)n1 [Cpd 196] | 76% | 
NC(=O)c1cccc(-c2ccc(NC(=O)/C=C/c3ccc(C(F)(F)F)cc3)cc2)c1 [Cpd 47] | 1% | 
CC(C)(C)c1ccc(CCC(=O)Nc2ccc(-c3cccc4[nH]ccc34)cc2)cc1 [Cpd 122] |  | Ki [1]: 335 nM; inhibition at 1 µM [1]: 64%
COc1cccc(-c2ccc(NC(=O)CCc3ccc(C(C)(C)C)cc3)cc2)c1 [Cpd 27] |  | Ki [1]: 846 nM; inhibition at 1 µM [1]: 53%
CC(C)(C)c1ccc(CCC(=O)Nc2ccc(-c3ccc4cc[nH]c4c3)cc2)cc1 [Cpd 123] | 39% | 
CC(C)(C)c1ccc(CCC(=O)Nc2ncc(-c3cccc(C(N)=O)c3)cn2)cc1 [Cpd 130] | 1% | 
Cc1cc(-c2cccc(C(N)=O)c2)ccc1NC(=O)CCc1ccc(C(C)(C)C)cc1 [Cpd 50] | 11% | 
CC(C)(C)c1ccc(CCC(=O)Nc2ccc(-c3cccc(C(N)=O)c3)cc2C(=O)O)cc1 [Cpd 66] | 1% | 
CC(C)(C)c1ccc(CCC(=O)Nc2ccc(-c3cccc(CO)c3)nc2)cc1 [Cpd 134] | 25% | 

SMILES | h Binding % I (1 μM) [1] | other results
COc1ccc(-c2ccc(NC(=O)CCc3ccc(C(C)(C)C)cc3)cc2)cn1 [Cpd 121] | 36% | 
CC(C)(C)c1ccc(CCC(=O)Nc2ccc(-c3cccc(C#N)c3)cc2)cc1 [Cpd 25] |  | Ki [1]: 103 nM; inhibition at 1 µM [1]: 94%
CC(C)(C)c1ccc(CCC(=O)Nc2ccc(-c3cnco3)cc2)cc1 [Cpd 193] | 49% | 
COc1ccc(-c2cccc(NC(=O)CCc3ccc(C(C)(C)C)cc3)c2)cn1 [Cpd 119] | 1% | 
CC(C)(C)c1ccc(CCC(=O)Nc2cnc(-c3cccc(C(N)=O)c3)cn2)cc1 [Cpd 131] | 1% | 
CC(C)(C)c1ccc(CCC(=O)Nc2ccc(-c3ncccn3)cc2)cc1 [Cpd 112] |  | Ki [1]: 216 nM; inhibition at 1 µM [1]: 68%
CC(C)(C)c1ccc(/C=C/C(=O)Nc2cccc(-c3cccc(C(N)=O)c3)c2)cc1 [Cpd 33] |  | Ki [1]: 171 nM; inhibition at 1 µM [1]: 82%
CC(C)(C)c1ccc(CCC(=O)Nc2cccc(-c3cncnc3)c2)cc1 [Cpd 117] | 1% | 
CC(=O)Nc1cccc(-c2ccc(NC(=O)CCc3ccc(C(C)(C)C)s3)cc2)c1 [Cpd 64] | 33% | 
CC(C)(C)c1ccc(CCC(=O)Nc2ccc(-n3ccnc3)cc2)cc1 [Cpd 261] |  | Ki [1]: 311 nM
CC(C)(C)c1ccc(CCC(=O)Nc2ccc(-c3ccccn3)cc2)cc1 [Cpd 110] |  | Ki [1]: 11.3 nM; inhibition at 1 µM [1]: 97%
CC(C)(C)c1ccc(CCC(=O)Nc2ccc(-c3cccc(O)c3)cc2C(=O)O)cc1 [Cpd 68] | 1% | 
CC(C)(C)c1ccc(CCC(=O)Nc2ccc(-c3cccc(C(N)=O)c3)cc2)s1 [Cpd 63] | 1% | 
Cc1cn(-c2ccc(NC(=O)CCc3ccc(S(=O)(=O)C(F)(F)F)cc3)cc2C(F)(F)F)cn1 [Cpd 209] |  | IC50 [2]: 48 nM; inhibition at 1 µM [2]: 100%
CC(C)(C)c1ccc(CCC(=O)Nc2cnc(-c3cccnc3)cn2)cc1 [Cpd 187] |  | h % I (1 μM) [2]: 11%; h % I (5 μM) [2]: 15%
Cc1cc(NC(=O)CCc2ccc(C(C)(C)C)cc2)cc(C)c1-c1ccncc1 [Cpd 167, 3-(4-tert-butyl-phenyl)-N-(3,5-dimethyl-4-pyridin-4-yl-phenyl)-propionamide] |  | IC50 [2]: 183 nM; inhibition at 5 µM [2]: 93%
CC(C)(C)c1ccc(CCC(=O)Nc2cnc(-c3ccc(O)cc3)cn2)cc1 [Cpd 185] |  | h % I (1 μM) [2]: 1%; h % I (5 μM) [2]: 24%
CC(C)(C)c1ccc(CCC(=O)Nc2ccc(-c3c[nH]cn3)cc2)cc1 [Cpd 192] | 50% | 
